Results on 15 compounds are retold here after paper PMC5213423, “Identification of a Drug Targeting an Intrinsically Disordered Protein Involved in Pancreatic Adenocarcinoma” (Scientific Reports, 2017).

Series [1] concerns the target T1, NUPR1 (Homo sapiens, UniProt O60356).
T1 construct: made in house; host or cells: E. coli
T1 sequence (O60356 1-82): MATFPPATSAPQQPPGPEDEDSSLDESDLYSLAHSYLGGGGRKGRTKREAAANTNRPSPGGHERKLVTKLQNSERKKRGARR
The experiment in a line: Isothermal titration calorimetry (ITC) of compound binding to NUPR1. Conditions: 25 °C, 20 mM sodium phosphate pH 7, relative error is 20%. The procedure:
Ligand binding to NUPR1 was determined with a high sensitivity isothermal titration calorimeter Auto-iTC200 (MicroCal–Malvern Instruments, Malvern UK). Protein samples and reference solutions were properly degassed and carefully loaded into the calorimetric cells to avoid bubble formation during stirring. Experiments were performed with freshly prepared buffer-exchanged protein solutions, at 25 °C in 20 mM sodium phosphate pH 7. NUPR1 20 μM solution in the calorimetric cell was titrated with 300–400 μM compound solution. A sequence of 19 injections of 2 μL volume was programmed with a stirring speed of 1000 rpm. The heat evolved after each ligand injection was obtained from the integral of the calorimetric signal. The heat due to the binding reaction was obtained as the difference between the reaction heat and the corresponding heat of dilution, the latter estimated as a constant value throughout the experiment, and included as an adjustable parameter in the analysis. Control experiments (compound injected into buffer) were performed under the same experimental conditions. The association constant (Ka) and the enthalpy change (ΔH) of the binding reaction were obtained through non-linear regression of experimental data to a model for a protein with a single ligand binding site. Experiments were performed in replicates and data were analyzed using in-house developed software implemented in Origin 7 (OriginLab, Northampton, MA).
Background: In ITC the heat of successive injections is recorded.

For series [2], the target named is T1, NUPR1. The experiment in a line: 2D 1H-15N HSQC NMR cross-peak broadening of NUPR1 upon compound addition. Conditions: NUPR1 100 μM : compound 400 μM, 25 °C, pH 4.5. The format is binding. The procedure:
The NMR data were acquired at 25 °C, pH 4.5 (acetate buffer), on a Bruker Avance DRX-500 spectrometer equipped with a triple-resonance probe and z-gradients. All spectra were referenced to external TSP.
The 2D ^1H-^15N heteronuclear single-quantum coherence (HSQC) spectra[42] were acquired in the phase sensitive mode for isolated ^15N-labelled NUPR1 (100 μM) or ^15N-labelled NUPR1 (100 μM) in the presence of the corresponding compound (400 μM). […] Frequency discrimination in the indirect dimensions was achieved by using the echo/antiecho-TPPI method. […] The carrier of the ^1H dimension was set at 8.00 ppm, and that of ^15N at 120 ppm. The spectral widths used were 10 and 35 ppm in the ^1H and ^15N dimensions, respectively. Water signal was suppressed with the WATERGATE sequence. Data were zero-filled to double the number of original points in both dimensions, apodized with shifted squared sine-bell functions in the two dimensions and Fourier transformed with the program TopSpin 1.2. Assignments were taken from those previously reported. The intensity of the signals from each row in the HSQC spectra was measured by using TopSpin 2.1 taking into account, as an internal reference, the intensity of the last residue of NUPR1. Only differences in intensity of a particular residue between spectra of the complex (NUPR1:Compound) and that of isolated NUPR1 larger than 10%, were considered significant.

Series [3] has as its system MiaPaCa-2 cells. The experiment in a line: Colony formation in soft agar (clonogenicity). Conditions: 10 μM compound. Type of series: cell-based, human. The procedure:
Colony formation assay was performed in order to measure the in vitro survival ability of a single cell to grow into a colony in an anchorage-independent growth environment. Briefly, after treating MiaPaCa-2 cells with either the compounds or DMSO (as control) for 24 and 48 h, they were seeded in DMEM complete media at a density of 7 × 10^3 cells in 6-well plates containing a top layer of 0.7% agar and a bottom layer of 1% agar. Plates were incubated at 37 °C for 3 to 4 weeks and then stained with 0.2% crystal violet. […] Comparisons of treatment outcome were tested for statistical significance by using the t-test.

In series [4] the test system is MiaPaCa-2 cells. The experiment in a line: Chemograms of Gemcitabine or Oxaliplatin with or without Compound-15.
Procedure: (§1) Cells (10000 cells/well) were plated in 96-well plates with DMEM. Twenty-four hours later, the media were supplemented with 10 μM of Compound and were incubated for another additional six days. Each experiment was performed in duplicate and repeated at least three times. Cell viability was estimated after addition of the CellTiter-Blue viability reagent (Promega, Madrid, Spain) for 1 h according to the protocol provided by the supplier. Cell viability was measured on day 6 and normalized regarding untreated cells rates. Statistical significance was assumed at a p-value lower than 0.05.
The subject of series [5] is MiaPaCa-2 cells. The experiment in a line: Cell viability assay (CellTiter-Blue), MiaPaCa-2. To be noted: MiaPaCa-2, 10 μM of each compound, 6 days, normalized to untreated cells.
Procedure: as §1

Counter-ions that a name gives are not always drawn. Like-named read-outs stand apart in the source and are kept apart here.

The term Kd denotes the concentration at which binding is half-saturated. Low readings indicate tighter binding, high ones weaker binding. As for `CC(C)NCC(O)c1ccc(O)c(O)c1.O=C(O)C(O)C(O)C(=O)O` (single isomer, unassigned; (+)) [Compound-9, (+)-Isoproterenol (+)-bitartrate salt], the Kd at NUPR1 [1] worked out at 4 µM. Further, the “Residues of NUPR1 with NMR-cross-peak broadening affected by binding” value (“Residues of NUPR1” below) on NUPR1 [2] is “Ser9; Ala10; Leu29; Ala33; Gly38; Thr68”.
With `CC(C)NCC(O)c1ccc(O)c(O)c1.Cl` (single isomer, unassigned; (-)) [compound 5, (-)-Isoproterenol hydrochloride], binding at NUPR1 [1] was put at a Kd of 3.9 µM. At NUPR1 [2], the “Residues of NUPR1” value was “Thr68”.
Take `CC(C)(C)c1ccc(C(O)CCCN2CCC(C(O)(c3ccccc3)c3ccccc3)CC2)cc1` (stereo not shown) [Compound-1, Terfenadine]: the Kd on NUPR1 [1] stood at 5 µM.
As to `OCCN1CCN(CCCN2c3ccccc3Sc3ccc(C(F)(F)F)cc32)CC1` [Compound-2, Fluphenazine dihydrochloride], the equilibrium dissociation constant (Kd) on NUPR1 [1] came to 2 µM. For the same compound, the “Residues of NUPR1” value on NUPR1 [2] is recorded as “Thr68”.
As for `Fc1ccc(C(c2ccc(F)cc2)N2CCN(C/C=C/c3ccccc3)CC2)cc1` [Compound-6, Flunarizine dihydrochloride], the Kd at NUPR1 [1] is 3.1 µM. Moreover, on NUPR1 [2], the “Residues of NUPR1” value was “Ala33; Thr68”.
On NUPR1 [1], `CCCCN(CCCC)CCC(O)c1cc2c(Cl)cc(Cl)cc2c2cc(C(F)(F)F)ccc12` (stereo not shown) [Compound-7, Halofantrine hydrochloride] had a Kd of 3.3 µM. Also, on NUPR1 [2], the “Residues of NUPR1” value is “Thr68”.
For the compound `C[C@H](N)[C@H](O)c1ccc(O)c(O)c1` [Compound-8, Levonordefrin], the equilibrium dissociation constant (Kd) on NUPR1 [1] is 1.5 µM. On NUPR1 [2], the “Residues of NUPR1” value is on record as “Ala33; Thr68”.
For `CC(C)N1CCN(c2ccc(OCC3COC(Cn4cncn4)(c4ccc(Cl)cc4Cl)O3)cc2)CC1` (stereo not shown) [Compound-11, Terconazole], on NUPR1 [2], the “Residues of NUPR1” value is on record as “Thr68”.
With `CC(C)(C)CC(C)(C)c1ccc(OCCOCC[N+](C)(C)Cc2ccccc2)cc1` [Compound-13, Benzethonium chloride], in the series with MiaPaCa-2 cells [3], the Colony formation entry was “completely inhibited colony formation”.
One may read the viability as a per cent measure of how many cells are alive, often set against a control. `Nc1ccn([C@@H]2O[C@H](CO)[C@@H](O)C2(F)F)c(=O)n1` [Gemcitabine]: in the series on MiaPaCa-2 cells [4] (Homo sapiens, MIA PaCa-2, 72 h, read-out: IC50 (concentration reducing cell viability to one half)), the IC50 came to 0.06 µM. For the same compound, in the series on MiaPaCa-2 cells [4] (Homo sapiens, MIA PaCa-2, read-out: Cell viability), the viability at 0.06 µM turned out to be 41 ± 0.4%.
Regarding `O=C1[O][Pt]2([NH][C@@H]3CCCC[C@H]3[NH]2)[O]C1=O` [Oxaliplatin], the Cell viability came out at 10 ± 2% with MiaPaCa-2 cells [5] and 53 ± 0.4% in the series with MiaPaCa-2 cells [4] (4 μM Oxaliplatin alone). The IC50 in the series on MiaPaCa-2 cells [4] (drug alone, MiaPaCa-2, 3 days) was found to be 4 µM.
`O=C(O)/C=C/c1ccc(O)c(O)c1` [compound 3, Caffeic acid] returned an equilibrium dissociation constant (Kd) at NUPR1 [1] of 2 µM. Moreover, the “Residues of NUPR1” value on NUPR1 [2] is reported as “Ala33; Thr68”.
As to `COC(=O)[C@H]1[C@H]2C[C@@H]3c4[nH]c5cc(OC)ccc5c4CCN3C[C@H]2C[C@@H](OC(=O)c2cc(OC)c(OC)c(OC)c2)[C@@H]1OC` [compound 4, Reserpine], the dissociation constant (Kd) on NUPR1 [1] was 3.2 µM. Besides, the “Residues of NUPR1” value at NUPR1 [2] is on record as “Thr68”.
For `CN(C)CCC(c1ccccc1)c1ccccn1` (stereo not shown) [compound 10, Pheniramine maleate], the dissociation constant (Kd) on NUPR1 [1] turned out to be 4.3 µM. The “Residues of NUPR1” value at NUPR1 [2] is reported as “Ser9; His62; Thr68”.
`CN(C)[C@@H]1C(O)=C(C(N)=O)C(=O)[C@@]2(O)C(O)=C3C(=O)c4c(O)ccc(Cl)c4[C@@](C)(O)[C@H]3C[C@@H]12` [compound 14, Chlortetracycline hydrochloride]: on NUPR1 [1], binding was characterised by a dissociation constant (Kd) of 1.5 µM. The “Residues of NUPR1” value on NUPR1 [2] was “Ala33; Thr68”.
